The subject of one assay is ACE2 receptor. Format: cell-based, human. To be noted: control cells set at 1.000, cells harvested after 24 hours.
Another assay concerns TMPRSS2. It is filed as cell-based, human. The settings on record: control cells set at 1.000, cells harvested after 24 hours.
Another assay deals with NFKB1. It is filed as cell-based, human. To be noted: control cells set at 1.000, cells harvested after 24 hours.
In a further assay the test system is NFKB2. It is filed as cell-based, human. To be noted: control cells set at 1.000, cells harvested after 24 hours.
Another assay deals with TNF. Format: cell-based, human. The settings on record: control cells set at 1.000, cells harvested after 24 hours.
A further assay has as its system TNFRSF1A. Format: cell-based, human. To be noted: control cells set at 1.000, cells harvested after 24 hours.
Another assay relates to TNFRSF9. Format: cell-based, human. The settings on record: control cells set at 1.000, cells harvested after 24 hours.
The next assay deals with ILIA. It is filed as cell-based, human. To be noted: control cells set at 1.000, cells harvested after 24 hours.
Another assay relates to IL1B. Format: cell-based, human. The settings on record: control cells set at 1.000, cells harvested after 24 hours.
Another assay deals with IL6. Format: cell-based, human. To be noted: control cells set at 1.000, cells harvested after 24 hours.
The subject of the next assay is CCL2. Format: cell-based, human. To be noted: control cells set at 1.000, cells harvested after 24 hours.
The test system of a further assay is CCL5. Format: cell-based, human. The settings on record: control cells set at 1.000, cells harvested after 24 hours.
In another assay the test system is CXCL8. Format: cell-based, human. To be noted: control cells set at 1.000, cells harvested after 24 hours.
Assay [1] relates to carrageenan (CAR) induced inflammation model. In words: Carrageenan (CAR) induced paw edema model. Format: in vivo. The settings on record: rat, peptide 70 ng, 1 nanomole injected 30 minutes after CAR; for Edema, change in paw volume after CAR injection: sub-plantar CAR 100 μL of 1% suspension, plethysmometer hourly for 24 h, versus control animals. The text has this:
The anti-inflammatory activity of YMAP[D]EV (SEQ ID NO:116) was also examined in a classical carrageenan (CAR) induced inflammation model (Ivan G. Otterness, Peter F. Moore, Carrageenan foot edema test, Methods in Enzymology, Academic Press, Volume 162, 1988, Pages 320-327, (see URL www.sciencedirect.com/science/article/pii/0076687988620866); Fehrenbacher J C et al., Models of inflammation: Carrageenan- or complete Freund's Adjuvant (CFA)-induced edema and hypersensitivity in the rat. Curr Protoc Pharmacol. 2012 March; Chapter 5m Unit5.4, doi:10.1002/0471141755.ph0504s56. PMID: 22382999; PMCID: PMC4683998.). Paw edema was induced by a sub-plantar injection of CAR (100 μL of a 1% suspension in 0.85% saline). In the treatment group, YMAP[D]EV (SEQ ID NO:116) (70 ng, 1 nanomole) was injected 30 minutes after CAR injection. Changes in paw volume were measured using a plethysmometer immediately before CAR injection, and then at hourly intervals for 24 h. Edema was expressed as change in paw volume (mL) after CAR injection relative to the pre-injection value for each rat.
(In general: In the carrageenan paw model, swelling and tenderness develop within hours.)

Where two headings read alike, the source gives them in different places. Non-standard residues stand in square brackets, D forms with d. Residues, ends and D or L forms follow the SMILES beside them. No end group written: not given here. A value given as a limit tells only on which side of the number the result lay.

Take `CSCC[C@H](NC(=O)[C@@H](N)Cc1ccc(O)cc1)C(=O)N[C@@H](C)C(=O)N1CCC[C@H]1C(=O)N[C@H](CCC(=O)O)C(=O)N[C@H](C(=O)O)C(C)C` [PEP2, L-tyrosyl-L-methionyl-L-alanyl-L-prolyl-D-glutamyl-L-valine] (H-YMAP[dE]V-OH): the “ACE2 receptor RNA expression, ratio of treated cells to control cells” value in the assay with ACE2 receptor (DriverMap gene analysis) is 1.000. Further, the “TMPRSS2 RNA expression, ratio of treated cells to control cells” value with TMPRSS2 (DriverMap gene analysis) was determined as 1.000. Further, in the assay on NFKB1 (DriverMap gene analysis), the “NFKB1 RNA expression, ratio of treated cells to control cells” value was determined as 0.243. For the same compound, the “NFKB2 RNA expression, ratio of treated cells to control cells” value with NFKB2 (DriverMap gene analysis) came out at 0.138. For the same compound, the “TNF RNA expression, ratio of treated cells to control cells” value in the assay with TNF (DriverMap gene analysis) turned out to be 0.015. The “TNFRSF1A RNA expression, ratio of treated cells to control cells” value with TNFRSF1A (DriverMap gene analysis) is 0.752. Also, in the assay with TNFRSF9 (DriverMap gene analysis), the “TNFRSF9 RNA expression, ratio of treated cells to control cells” value was found to be 0.007. Further, in the assay on ILIA (DriverMap gene analysis), the “ILIA RNA expression, ratio of treated cells to control cells” value is given as 0.260. Also, in the assay with IL1B (DriverMap gene analysis), the “IL1B RNA expression, ratio of treated cells to control cells” value came to 0.010. Moreover, in the assay on IL6 (DriverMap gene analysis), the “IL6 RNA expression, ratio of treated cells to control cells” value was determined as 0.057. For the same compound, the “CCL2 RNA expression, ratio of treated cells to control cells” value with CCL2 (DriverMap gene analysis) is 0.059. For the same compound, the “CCL5 RNA expression, ratio of treated cells to control cells” value in the assay with CCL5 (DriverMap gene analysis) came out at 0.0003. For the same compound, in the assay on CXCL8 (DriverMap gene analysis), the “CXCL8 RNA expression, ratio of treated cells to control cells” value is given as 0.0052. For the same compound, the “Duration of the effect on edema” value in [1] (24-hour period of observation) was no less than 24 h. The “Edema, change in paw volume after CAR injection” value in [1] is “marked decrease in edema within two hours”.

Regarding “ANVAENA [PEP1, L-alanyl-L-asparaginyl-L-valyl-L-alanyl-L-glutamyl-L-asparaginyl-L-alanine]”, the “ACE2 receptor RNA expression, ratio of treated cells to control cells” value with ACE2 receptor (Affymetrix gene arrays) is on record as 0.632. For the same compound, the “TMPRSS2 RNA expression, ratio of treated cells to control cells” value in the assay on TMPRSS2 (Affymetrix gene arrays) is reported as 0.525. The “NFKB1 RNA expression, ratio of treated cells to control cells” value in the assay with NFKB1 (Affymetrix gene arrays) is on record as 0.927. Besides, in the assay with NFKB2 (Affymetrix gene arrays), the “NFKB2 RNA expression, ratio of treated cells to control cells” value amounted to 0.851. Also, in the assay with TNF (Affymetrix gene arrays), the “TNF RNA expression, ratio of treated cells to control cells” value is reported as 0.349. Moreover, in the assay on TNFRSF1A (Affymetrix gene arrays), the “TNFRSF1A RNA expression, ratio of treated cells to control cells” value was determined as 1.415. Also, in the assay with TNFRSF9 (Affymetrix gene arrays), the “TNFRSF9 RNA expression, ratio of treated cells to control cells” value was 1.136. In addition, the “ILIA RNA expression, ratio of treated cells to control cells” value with ILIA (Affymetrix gene arrays) amounted to 0.036. Further, in the assay with IL1B (Affymetrix gene arrays), the “IL1B RNA expression, ratio of treated cells to control cells” value is 0.691. For the same compound, the “IL6 RNA expression, ratio of treated cells to control cells” value with IL6 (Affymetrix gene arrays) stood at 1.135. In the assay with CCL2 (Affymetrix gene arrays), the “CCL2 RNA expression, ratio of treated cells to control cells” value is 1.298. In addition, the “CCL5 RNA expression, ratio of treated cells to control cells” value in the assay on CCL5 (Affymetrix gene arrays) is recorded as 0.456. In addition, in the assay on CXCL8 (Affymetrix gene arrays), the “CXCL8 RNA expression, ratio of treated cells to control cells” value amounted to 1.135. Further, the “Edema, change in paw volume after CAR injection” value in assay [1] is “nearly identical data”.

Values taken from patent US20220133837A1, “PEPTIDE INHIBITORS OF NF KAPPA B AND USE THEREOF IN TREATMENT OF COVID-19 AND INFLAMMATORY DISEASES” (priority 2020, published 2022).
